According to US6506751B1, “Thiazolidinone compounds useful as chemokine inhibitors” (Millennium Pharmaceuticals, Inc., priority 1999, dated 2003):

Target: T1, CCR-5 receptor (Homo sapiens, UniProt P51681)
T1 construct: membranes prepared from CCR-5/L 1.2 cells; expressed in transfected cells; host or cells: L1.2 cells (CCR-5/L 1.2), membrane preparation
Experiment: 125I-gp120/sCD4/CCR-5 binding assay (CCR-5 receptor binding assay)
Conditions: for IC50: block of 125I-gp120 (HIV-1 JR-FL)/sCD4 binding to membranes from CCR-5/L 1.2 cells; for inhibition at 10 µM / % Inhib. @ 10 μM: 10 μM compound, 125I-gp120/sCD4 binding to membranes from CCR-5/L 1.2 cells; for inhibition at 10 µM: read-out: % Inhib. @ 10 μM
Protocol: The ^125I-gp120/sCD4/CCR-5 binding assay is carried out similarly as described in Wu et al., Nature, 1996;384:179-183. Briefly, the envelope gp120 protein derived from HIV-1 JR-FL (Trkola et al., Nature, 1996;384:184-186), a M-tropic strain, is iodinated using solid phase lactoperoxidase to a specific activity of 20 μCi/μg. For each binding reaction (in a final volume of 100 μL binding buffer [50 mM HEPES, pH 7.5, 1 mM CaCl2, 5 mM MgCl2, and 0.5% BSA]), 25 μL (2.5 μg) of membranes prepared from CCR-5/L 1.2 cells are mixed with 25 μL (3 nM) sCD4, followed by 25 μL (0.1 nM) radiolabeled gp120 in the presence or absence of 25 μL compound dissolved in DMSO (final concentration of DMSO 0.5%). The reactions are incubated at room temperature for 45 to 60 minutes and stopped by transferring the mixture to GFB filter plates, which are then washed 3 to 4 times with binding buffer containing 0.5 M NaCl. The plates are dried and MicroScint scintillation fluid is added before counting.

T1 sequence (P51681 whole entry): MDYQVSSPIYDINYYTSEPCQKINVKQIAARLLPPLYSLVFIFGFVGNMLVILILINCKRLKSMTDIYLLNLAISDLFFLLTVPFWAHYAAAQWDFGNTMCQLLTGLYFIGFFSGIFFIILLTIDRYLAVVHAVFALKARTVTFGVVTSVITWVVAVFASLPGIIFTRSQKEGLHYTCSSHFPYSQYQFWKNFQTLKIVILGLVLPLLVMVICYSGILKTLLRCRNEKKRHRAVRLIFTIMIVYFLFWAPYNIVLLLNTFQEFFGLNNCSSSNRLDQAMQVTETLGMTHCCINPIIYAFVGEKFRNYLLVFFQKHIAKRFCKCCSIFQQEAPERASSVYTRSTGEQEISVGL

Row | SMILES | IC50 [nM] | inhibition at 10 µM [%] | further results
1 | O=C1/C(=C\c2ccccc2)SC(c2cccc(Cl)c2)N1CCCN1CCCCC1 (stereo not shown) [Compound 3, 5-Benzylidene-2-(3-chlorophenyl)-3-(3-piperidin-1-yl-propyl)-thiazolidin-4-one] | 280 |  | 
2 | O=C1/C(=C\c2cccc(F)c2)SC(c2cccc(Cl)c2)N1CCCN1CCCCC1 (stereo not shown) [Compound 4, 2-(3-Chlorophenyl)-5-(3-fluorobenzylidene)-3-(3-piperidin-1-yl-propyl)-thiazolidin-4-one] | 200 |  | 
3 | O=C1/C(=C\c2cccc(F)c2)SC(c2ccccc2)N1CCCN1CCC(N2CCCCC2)CC1 (stereo not shown) [Compound 5, 3-(3-[1,4′]Bipiperidinyl-1′-yl-propyl)-5-(3-fluorobenzylidene)-2-phenyl-thiazolidin-4-one] | 710 |  | 
4 | O=C1/C(=C\c2cccc(F)c2)SC(c2ccccc2)N1CCCN1CCOCC1 (stereo not shown) [Compound 7, 5-(3-Fluorobenzylidene)-3-(3-morpholin-4-yl-propyl)-2-phenyl-thiazolidin-4-one] | 140 |  | 
5 | O=C1/C(=C\c2ccncc2)SC(c2cccc(Cl)c2)N1CCCN1CCCCC1 (stereo not shown) [Compound 8, 2-(3-Chlorophenyl)-3-(3-piperidin-1-yl-propyl)-5-(pyridin-4-yl-methylene)-thiazolidin-4-one] | 780 |  | 
6 | O=C1/C(=C\c2ccc[nH]2)SC(c2cccc(Cl)c2)N1CCCN1CCCCC1 (stereo not shown) [Compound 9, 2-(3-Chlorophenyl)-3-(3-piperidin-1-yl-propyl)-5-(1 H-pyrrol-2-yl-methylene)-thiazolidin-4-one] | 390 |  | 
7 | O=C1/C(=C\c2ccsc2)SC(c2cccc(Cl)c2)N1CCCN1CCCCC1 (stereo not shown) [Compound 10, 2-(3-Chlorophenyl)-3-(3-piperidin-1-yl-propyl)-5-(thiophen-3-yl-methylene)-thiazolidin-4-one] | 1040 |  | 
8 | Cn1cccc1C=C1SC(c2cccc(Cl)c2)N(CCCN2CCCCC2)C1=O (stereo not shown) [Compound 11, 2-(3-Chlorophenyl)-5-(1-methyl-1H-pyrrol-2-ylmethylene)-3-(3-piperidin-1-yl-propyl)-thiazolidin-4-one] | 980 |  | 
9 | CCC(/C=C1/SC(c2cccc(Cl)c2)N(CCCN2CCCCC2)C1=O)CC (stereo not shown) [Compound 12, 2-(3-Chlorophenyl)-5-(2-ethylbutylidene)-3-(3-piperidin-1-yl-propyl)-thiazolidin-4-one] | 6640 |  | 
10 | CN(C)CC(C)(C)/C=C1/SC(c2cccc(Cl)c2)N(CCCN2CCCCC2)C1=O (stereo not shown) [Compound 13, 2-(3-Chlorophenyl)-5-(3-dimethylamino-2,2-dimethylpropylidene)-3-(3-piperidin-1-yl-propyl)-thiazolidin-4-one] | 2820 |  | 
11 | O=C1/C(=C\c2cnc3ccccc3c2)SC(c2cccc(Cl)c2)N1CCCN1CCCCC1 (stereo not shown) [Compound 18, 2-(3-Chlorophenyl)-3-(3-piperidin-1-yl-propyl)-5-(quinolin-3-ylmethylene)-thiazolidin-4-one] | 4120 |  | 
12 | O=C1C(=Cc2ccccc2)SC(c2ccccc2)N1CCCN1CCCCCC1 (stereo not shown) [Compound 21, 3-(3-Azepan-1-ylpropyl)-5-benzylidene-2-phenyl-thiazolidin-4-one] | 1400 |  | 
13 | O=C1/C(=C\c2cccc(F)c2)SC(c2cccc(Cl)c2)N1CCCN1CCC(N2CCCCC2)CC1 (stereo not shown) [Compound 22, 3-(3-[1,4′]Bipiperidinyl-1′-yl-propyl)-2-(3-chlorophenyl)-5-(3-fluorobenzylidene)-thiazolidin-4-one] | 400 |  | 
14 | O=C1C(=Cc2ccccc2)[S+]([O-])C(c2cccc(Cl)c2)N1CCCN1CCCCC1 (stereo not shown) [Compound 24, 5-Benzylidene-2-(3-chlorophenyl)-1-oxo-3-(3-piperidin-1-yl-propyl)-thiazolidin-4-one] | 3100 |  | 
15 | O=C1C(=Cc2cccc(F)c2)SC(c2cccc(C(F)(F)F)c2)N1CCCN1CCCCC1 (stereo not shown) [Compound 25, 5-(3-Fluoro-benzylidene)-3-(3-piperidin-1-yl-propyl)-2-(3-trifluoromethyl-phenyl)-thiazolidin-4-one] |  | 50.7 | 
16 | O=C1C(=Cc2cccc(F)c2)SC(c2cccc(F)c2)N1CCCN1CCN(c2ccccn2)CC1 (stereo not shown) [Compound 26, 5-(3-Fluoro-benzylidene)-2-(3-fluoro-phenyl)-3-[3-(4-pyridin-2-yl-piperazin-1-yl)-propyl]-thiazolidin-4-one] |  | 75.3 | 
17 | O=C1C(=Cc2cccc(F)c2)SC(c2cccc(F)c2)N1CCCN1CCN(C2CCCCC2)CC1 (stereo not shown) [Compound 27, 3-[3-(4-Cyclohexyl-piperazin-1-yl)-propyl]-5-(3-fluoro-benzylidene)-2-(3-fluoro-phenyl)-thiazolidin-4-one] |  | 57.6 | 

Row | SMILES | IC50 [nM] | inhibition at 10 µM [%] | further results
18 | O=C1C(=Cc2cccc(F)c2)SC(c2cccc(Cl)c2)N1CCCN1CCN(c2ccccn2)CC1 (stereo not shown) [Compound 28, 2-(3-Chloro-phenyl)-5-(3-fluoro-benzylidene)-3-[3-(4-pyridin-2-yl-piperazin-1-yl)-propy1]-thiazolidin-4-one] |  |  | % Inhib. @ 10 μM: 78.8%
19 | O=C1C(=Cc2cccc(F)c2)SC(c2cccc(Cl)c2)N1CCCN1CCN(c2ncccn2)CC1 (stereo not shown) [Compound 29, 2-(3-Chloro-phenyl)-5-(3-fluoro-benzylidene)-3-[3-(4-pyrimidin-2-yl-piperazin-1-yl)-propyl]-thiazolidin-4-one] |  | 86.8 | 
20 | O=C1C(=Cc2cccc(C(F)(F)F)c2)SC(c2cccc(Cl)c2)N1CCCN1CCN(c2ccccn2)CC1 (stereo not shown) [Compound 30, 2-(3-Chloro-phenyl)-3-[3-(4-pyridin-2-yl-piperazin-1-yl)-propyl]-5-(3-trifluoromethyl-benzylidene)-thiazolidin-4-one] |  | 61.7 | 
21 | O=C1C(=Cc2cccc(C(F)(F)F)c2)SC(c2cccc(Cl)c2)N1CCCN1CCCCC1 (stereo not shown) [Compound 31, 2-(3-Chloro-phenyl)-3-(3-piperidin-1-yl-propyl)-5-(3-trifluoromethyl-benzylidene)-thiazolidin-4-one] |  | 54.4 | 
22 | O=C1C(=Cc2cccc(C(F)(F)F)c2)SC(c2cccc(Cl)c2)N1CCCN1CCN(c2ncccn2)CC1 (stereo not shown) [Compound 32] |  |  | % Inhib. @ 10 μM: 81.8%
23 | O=C1C(=Cc2ccccc2)SC(c2cccc(C(F)(F)F)c2)N1CCCN1CCN(c2ccccn2)CC1 (stereo not shown) [Compound 33, 5-Benzylidene-3-[3-(4-pyridin-2-yl-piperazin-1-yl)-propyl]-2-(3-trifluoromethyl-phenyl)-thiazolidin-4-one] |  | 62 | 
24 | O=C1C(=Cc2ccccc2)SC(c2cccc(C(F)(F)F)c2)N1CCCN1CCN(c2ncccn2)CC1 (stereo not shown) [Compound 34, 5-Benzylidene-3-[3-(4-pyrimidin-2-yl-piperazin-1-yl)-propyl]-2-(3-trifluoromethyl-phenyl)-thiazolidin-4-one] |  | 79.2 | 
25 | O=C1C(=Cc2ccccc2)SC(c2cccc(F)c2)N1CCCN1CCN(c2ccccn2)CC1 (stereo not shown) [Compound 35, 5-Benzylidene-2-(3-fluoro-phenyl)-3-[3-(4-pyridin-2-yl-piperazin-1-yl)-propyl]-thiazolidin-4-one] |  | 76.2 | 
26 | O=C1C(=Cc2ccccc2)SC(c2cccc(F)c2)N1CCCN1CCCCC1 (stereo not shown) [Compound 36, 5-Benzylidene-2-(3-fluoro-phenyl)-3-(3-piperidin-1-yl-propyl)-thiazolidin-4-one] |  | 63.3 | 
27 | O=C1C(=Cc2ccccc2)SC(c2cccc(F)c2)N1CCCN1CCC(N2CCCCC2)CC1 (stereo not shown) [Compound 37, 5-Benzylidene-3-(3-[1,4′]bipiperidinyl-1′-yl-propyl)-2-(3-fluoro-phenyl)-thiazolidin-4-one] |  | 56.6 | 
28 | O=C1C(=Cc2ccccc2)SC(c2cccc(F)c2)N1CCCN1CCN(C2CCCCC2)CC1 (stereo not shown) [Compound 38, 5-Benzylidene-3-[3-(4-cyclohexyl-piperazin-1-yl)-propyl]-2-(3-fluoro-phenyl)-thiazolidin-4-one] |  | 54.4 | 
29 | O=C1C(=Cc2ccccc2)SC(c2cccc([N+](=O)[O-])c2)N1CCCN1CCN(c2ncccn2)CC1 (stereo not shown) [Compound 39] |  |  | % Inhib. @ 10 μM: 70.1%
30 | O=C1C(=Cc2ccccc2)SC(c2cccc(Cl)c2)N1CCCN1CCN(c2ccccn2)CC1 (stereo not shown) [Compound 40, 5-Benzylidene-2-(3-chloro-phenyl)-3-[3-(4-pyridin-2-yl-piperazin-1-yl)-propyl]-thiazolidin-4-one] |  | 84.3 | 
31 | O=C1C(=Cc2ccccc2)SC(c2cccc(Cl)c2)N1CCCN1CCC(N2CCCCC2)CC1 (stereo not shown) [Compound 41, 5-Benzylidene-3-(3-[1,4′]bipiperidinyl-1′-yl-propyl)-2-(3-chloro-phenyl)-thiazolidin-4-one] |  | 62.4 | 
32 | O=C1C(=Cc2ccccc2)SC(c2cccc(Cl)c2)N1CCCN1CCOCC1 (stereo not shown) [Compound 42, 5-Benzylidene-2-(3-chloro-phenyl)-3-(3-morpholin-4-yl-propyl)-thiazolidin-4-one] |  | 64.7 | 
33 | O=C1C(=Cc2ccccc2)SC(c2cccc(Cl)c2)N1CCCN1CCN(c2ncccn2)CC1 (stereo not shown) [Compound 43, 5-Benzylidene-2-(3-chloro-phenyl)-3-[3-(4-pyrimidin-2-yl-piperazin-1-yl)-propyl]-thiazolidin-4-one] |  | 95 | 
34 | O=C1C(=Cc2ccccc2)SC(c2cccc(Cl)c2)N1CCCN1CCN(C2CCCCC2)CC1 (stereo not shown) [Compound 44, 5-Benzylidene-2-(3-chloro-phenyl)-3-[3-(4-cyclohexyl-piperazin-1-yl)-propyl]-thiazolidin-4-one] |  | 54.5 | 
